One experiment has as its system BZ receptors. The experiment in a line: [3H]Flunitrazepam binding, rat cortex. Conditions: 0.2 nM [3H]flunitrazepam, FIG. 6. The procedure:
[^3H]Flunitrazepam binding: assays were carried out under identical conditions, using an identical tissue preparation, as those used in the [^35S]TBPS binding assays with the exception that 1 μM GABA was added to all samples instead of 5 μM GABA. [^3H]Flunitrazepam, 0.2 nM (75 Ci/mmol, New England Nuclear, Boston, Mass.) was used to label BZ sites. Non-specific binding is defined as binding in the presence of 1 μM clonazepam. The data were evaluated by nonlinear regression to obtain IC50 and EC50 values.

Another experiment relates to GABAA receptor. The experiment in a line: [3H]Muscimol binding assay, rat cortex. Conditions: 5 nM [3H]muscimol, FIG. 7. The procedure:
[^3H]Muscimol binding assay: The cortex from male Sprague-Dawley rats (160-200 g) was removed immediately after euthanizing and dissected over ice. The tissue was homogenized in 15 vol of 0.32M sucrose followed by centrifugation for 10 min at 1000× g. The supernatant was transferred to a 38 mL polycarbonate tube (Beckman Instruments, Palo Alto Calif.) and centrifuged at 20,000× g for 20 min. The membrane pellet was resuspended in 10 vol of dH2O and centrifuged at 8,000× g for 20 min. The resulting pellet was washed with dH2O once and with Na^+-free assay buffer (40 mM KH2PO4, 100 mM KCl, pH 7.4). The pellet was resuspended in 35 mL of Na^+-free assay buffer, incubated at 37° C. for thirty minutes and then centrifuged 31,000× g for twenty minutes. The final pellet was resuspended in 10 vol of Na^+-free assay buffer. Protein concentration of membrane preparations was ˜1 mg/mL by BCA reagent protein assay. Aliquots of membrane suspension (100 μL) were incubated in Na^+-free assay buffer with 5 nM [^3H]muscimol (25 Ci/mmol, New England Nuclear, Boston, Mass.) and 5 μL of dimethylsulfoxide (DMSO) or drug dissolved in DMSO. The final volume of the incubation medium was 1 mL. […] Filter-bound radioactivity was quantified by LSC after an overnight extraction. The data were evaluated by nonlinear regression to obtain IC50 and EC50 values.

A further experiment deals with Male NSA mice. The experiment in a line: Mouse Light-Dark Transition Model of Anxiety. Format: in vivo. The note with it: compared with Diazepam (DZP), FIG. 3. The procedure: Male NSA mice (25-30 g) are used. The apparatus consists of an open-topped box divided into small and large area by a partition that has a hole at floor level. The small compartment is painted black and the large compartment white. The white compartment was illuminated with light and the black compartment with red light. The time spent in the light versus dark compartments and the number of transitions between compartments is recorded during a 5 min test session. Vehicle or test compounds are administered 30 min prior to the test. Diazepam is administered (i.p.) at 2 mg/kg as the positive control. Anti-anxiety agents will reduce the time the animals will spend in the dark compartment and increase the number of transitions between the two compartments.

Another experiment relates to 24 hour thirsted rats. Kind of experiment: Vogel Model of Anxiety (Vogel Conflict). Conditions: compared with Diazepam (DZP), FIG. 4. Format: in vivo, rat. The procedure:
Adult male rats are randomly divided into groups of 6 rats/group. Animals were deprived of water overnight (24 hr). Food was freely available at time of thirsting. Thirty minutes after injection (i.p.) of test drug, positive control drug (diazepam, 1 mg/kg), or vehicle control rats are placed in a square Plexiglas box containing a stainless steel bottom connected to one side of a drinkometer circuit. At the other side of the drinkometer circuit a water bottle, placed so the drink tube extends into the Plexiglas box, is connected. When a subject drinks from the bottle the circuit is closed and an electric shock is delivered at the tube after seven licks are recorded. The number of licks in a 3 min session is recorded. Anti-anxiety agents will increase the number of shocks the animal is willing to endure to acquire water.

The target in experiment [1] is T1, human GABAA receptors containing α2β2γ2 subunits (Homo sapiens, UniProt P18507+P47869+P47870).
T1 construct: expressed in transfected cells; host or cells: HEK cells
Kind of experiment: Electrophysiology Assay 2, GABAA subunit transfected HEK cells (α2β2γ2). Format: cell-based. The note with it: expressed human α2β2γ2 receptors; versus diazepam; FIG. 2. The procedure: (§1) GABAA subunit transfected HEK cells are maintained at 37° C. and 5% CO2 using Dulbecco's Modified Eagle's Medium with L-glutamine and no sodium pyruvate (Irvine Scientific #9031, Irvine Calif.) and supplemented with 10% fetal bovine serum (Irvine Scientific #3000), 10 U/ml hygromycin B (Calbiochem #400051), and an antibiotic cocktail consisting of 100 μg/ml streptomycin sulfate, 0.25 μg/ml amphotericin B, 100 units/ml penicillin G (Gibco 15240-096, Gaithersburg Md.). Cells are passed by 2× wash with phosphate buffered saline (PBS) pH 7.4 and lifted using 1× trypsin/EDTA solution in PBS (0.5 mg/ml trypsin, 0.2 mg/ml EDTA, Irvine Scientific #9342) when confluency reaches ˜90%.
(§2) GABAA subunit transfected HEK cells are grown to ˜70% confluency on slide. Cells are transferred to a bath that is continuously perfused with extracellular saline. The extracellular medium contained 145 mM NaCl, 3 mM KCl, 1.5 mM CaCl2, 1 mM MgCl2, 5.5 mM d-glucose, and 10 mM HEPES, pH 7.4 at an osmolarity of 320-330 mosM. Recordings are performed at room temperature using the whole cell patch clamp technique. The patch pipette solution contained 147 mM N-methyl-D-glucamine hydrochloride, 5 mM CsCl, 5 mM K2ATP, 5 mM HEPES, 1 mM MgCl2, 0.1 mM CaCl2, and 1.1 mM EGTA, pH 7.2, at an osmolarity of 315 mosM. Pipette-to-bath resistance is typically 3-5 Mohms. […]

Experiment [2] has as its system GABAA receptor complex (GRC). The experiment in a line: [35S]TBPS binding assay, rat cortex. Conditions: 2 nM [35S]TBPS.
Experiment [3] has as its target T2, human GABAA receptors containing α1β2γ2 subunits (Homo sapiens, UniProt P14867+P18507+P47870).
T2 construct: expressed in transfected cells; host or cells: HEK cells
Kind of experiment: Electrophysiology Assay 2, GABAA subunit transfected HEK cells (α1β2γ2). Format: cell-based. Conditions: expressed human α1β2γ2 receptors; versus diazepam; FIG. 2. The method, then: as §1, §2

For experiment [4], the system named is GABAA receptor complex (GRC). The experiment in a line: [35S]TBPS binding dissociation, mouse forebrain. The note with it: 2 nM [35S]TBPS.
The mark [5] stands for this setting: absence or presence of 3 μM and 10 μM (+)-bicuculline, FIG. 5.

T2 sequence (P14867 28-456): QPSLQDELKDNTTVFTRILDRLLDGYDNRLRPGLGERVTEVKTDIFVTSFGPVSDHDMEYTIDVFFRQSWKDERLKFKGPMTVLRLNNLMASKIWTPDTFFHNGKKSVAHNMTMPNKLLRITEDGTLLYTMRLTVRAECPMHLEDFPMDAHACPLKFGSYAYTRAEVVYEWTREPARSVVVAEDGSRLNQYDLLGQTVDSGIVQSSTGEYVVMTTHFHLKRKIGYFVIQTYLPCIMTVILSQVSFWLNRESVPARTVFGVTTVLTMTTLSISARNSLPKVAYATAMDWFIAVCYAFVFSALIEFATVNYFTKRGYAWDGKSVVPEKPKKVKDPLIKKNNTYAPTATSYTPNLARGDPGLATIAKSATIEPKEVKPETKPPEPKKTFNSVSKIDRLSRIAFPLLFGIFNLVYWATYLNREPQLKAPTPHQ
T2 sequence (P47870 25-512 limits assumed): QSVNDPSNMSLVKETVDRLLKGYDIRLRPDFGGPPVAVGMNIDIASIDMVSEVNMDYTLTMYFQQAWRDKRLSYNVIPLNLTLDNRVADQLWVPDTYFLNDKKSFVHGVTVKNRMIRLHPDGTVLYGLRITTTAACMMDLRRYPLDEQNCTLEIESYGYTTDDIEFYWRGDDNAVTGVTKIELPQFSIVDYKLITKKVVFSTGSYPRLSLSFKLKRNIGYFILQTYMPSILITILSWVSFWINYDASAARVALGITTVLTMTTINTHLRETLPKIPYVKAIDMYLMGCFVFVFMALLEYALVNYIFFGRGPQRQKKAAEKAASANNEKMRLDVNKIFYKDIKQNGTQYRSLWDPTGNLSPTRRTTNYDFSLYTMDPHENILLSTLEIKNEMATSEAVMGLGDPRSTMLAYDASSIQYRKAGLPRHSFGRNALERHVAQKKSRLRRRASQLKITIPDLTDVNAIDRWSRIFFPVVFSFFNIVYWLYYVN
T2 sequence (P18507 40-475): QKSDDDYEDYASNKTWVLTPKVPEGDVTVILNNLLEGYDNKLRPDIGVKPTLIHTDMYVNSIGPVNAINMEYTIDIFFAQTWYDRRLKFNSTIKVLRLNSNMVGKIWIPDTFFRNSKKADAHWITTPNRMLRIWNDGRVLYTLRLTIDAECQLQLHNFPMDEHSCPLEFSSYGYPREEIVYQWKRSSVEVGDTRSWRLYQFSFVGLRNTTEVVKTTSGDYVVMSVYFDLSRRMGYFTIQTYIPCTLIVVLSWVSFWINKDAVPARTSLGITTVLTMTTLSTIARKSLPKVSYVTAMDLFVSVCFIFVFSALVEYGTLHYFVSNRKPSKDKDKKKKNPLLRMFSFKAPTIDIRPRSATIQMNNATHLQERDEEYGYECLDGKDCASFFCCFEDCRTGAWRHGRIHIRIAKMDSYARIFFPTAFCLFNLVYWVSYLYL
T1 sequence (P47869 29-451): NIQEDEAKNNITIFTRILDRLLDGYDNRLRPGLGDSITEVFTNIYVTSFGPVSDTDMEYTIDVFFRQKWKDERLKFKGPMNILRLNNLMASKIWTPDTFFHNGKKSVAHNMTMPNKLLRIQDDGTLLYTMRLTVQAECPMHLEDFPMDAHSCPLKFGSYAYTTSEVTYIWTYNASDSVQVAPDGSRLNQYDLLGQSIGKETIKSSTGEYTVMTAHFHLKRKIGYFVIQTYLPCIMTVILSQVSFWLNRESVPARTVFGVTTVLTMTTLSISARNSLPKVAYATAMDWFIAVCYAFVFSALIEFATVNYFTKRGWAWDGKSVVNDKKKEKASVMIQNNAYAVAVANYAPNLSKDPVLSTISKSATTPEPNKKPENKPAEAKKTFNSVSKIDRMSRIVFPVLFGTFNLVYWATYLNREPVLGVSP
T1 sequence (P47870 25-512 limits assumed): as the sequence (P47870 25-512 limits assumed) above
T1 sequence (P18507 40-475): as the sequence (P18507 40-475) above

Consider `CCn1cc(C(=O)O)c(=O)c2cc(NC3CCCc4ccccc43)c(Cl)cc21` (centres unmarked) [compound 3, 7-chloro-1-ethyl-6-(1,2,3,4-tetrahydronaphthyl-1-amino)-4-oxo-1,4-dihydroquinoline-3-carboxylic acid], for which, in the experiment on BZ receptors, the “effect on [3H]flunitrazepam binding to BZ receptors” value was “allosterically coupled to and does not act directly on the BZ receptor”. In addition, the “effect on [3H]muscimol binding to the GABAA receptor” value in the experiment on GABAA receptor was “does not act directly on the GABAA receptor”. The “anti-anxiety effects, time spent in the dark” value in the experiment with Male NSA mice is reported as “comparable to that of DZP”. Also, the “anti-anxiety effects, punished responding (number of licks during a 3 minute period)” value in the experiment with 24 hour thirsted rats is “comparable to that of DZP”. Further, the “efficacy on GABA induced currents (IGABA)” value in experiment [1] is recorded as “dose-dependent positive efficacy”. The “interaction with 5α,20α-diol inhibition of [35S]TBPS binding (neurosteroid site)” value in experiment [2] (10 μM compound 3 or 100 nM 3α,5α-P, rat cortex, FIG. 8) is “does not act directly on the neurosteroid site of the GRC”. The “effect on [35S]TBPS binding in absence or presence of norfloxacin” value in experiment [2] (30 μM and 100 μM norfloxacin, rat cortex, FIG. 9) is “does not act directly at the same site as the antibacterial quinolone norfloxacin”. For the same molecule, in experiment [2] (0.3, 1 and 30 μM Ro5-4864, rat cortex, FIG. 11), the “effect on [35S]TBPS binding in absence or presence of Ro5-4864 (4′-chlorodiazepam)” value is reported as “does not act directly at the same site as 4′-chlorodiazepam”. Also, in experiment [2] (setting [5]), the “dependence on GABA of the effect on [35S]TBPS binding” value is reported as “absolute dependence of compound 3 on GABA for efficacy”; the “site of action relative to the [35S]TBPS site” value is “allosterically coupled to and does not act directly on the [^35S]TBPS site”. Moreover, in experiment [2] (initiated by 10 μM compound 3, 30 μM pentobarbital, rat cortex, FIG. 10), the “dissociation of [35S]TBPS binding in absence or presence of pentobarbital” value was “do not share a common site of action”. The “efficacy on GABA induced currents (IGABA)” value in experiment [3] is “dose-dependent positive efficacy”. In addition, the “dissociation of [35S]TBPS binding in absence or presence of ivermectin” value in experiment [4] (initiated by 10 μM compound 3, 10 μM ivermectin, FIG. 12) is “do not share a common site of action”. In addition, in experiment [4] (initiated by 10 μM compound 3, 10 μM mefenamic acid, FIG. 13), the “dissociation of [35S]TBPS binding in absence or presence of mefenamic acid” value is “do not share a common site of action”.

(Values after US7355047B2, “Substituted quinolone carboxylic acids, their derivatives, site of action, and uses thereof” (The Regents of the University of California, priority 2002, dated 2008).)
